Experimental data taken from ChEMBL document CHEMBL5338775, “Discovery of a Novel Class of PROTACs as Potent and Selective Estrogen Receptor α Degraders to Overcome Endocrine-Resistant Breast Cancer In Vitro and In Vivo” (J Med Chem, 2023).
The source made the active and inactive calls. No cut-off for these calls is given here. Residues, ends and D or L forms follow the SMILES beside them. *: point of attachment. Cbz = O=C(OCc1ccccc1)*

Key:
[1] = target: T1, Estrogen receptor beta (Homo sapiens, UniProt Q92731); test: Binding affinity to ERbeta (unknown origin) assessed as relative binding affinity incubated for 2 hrs by fluorescence polarization assay relative to estradiol
T1 sequence (Q92731 whole entry): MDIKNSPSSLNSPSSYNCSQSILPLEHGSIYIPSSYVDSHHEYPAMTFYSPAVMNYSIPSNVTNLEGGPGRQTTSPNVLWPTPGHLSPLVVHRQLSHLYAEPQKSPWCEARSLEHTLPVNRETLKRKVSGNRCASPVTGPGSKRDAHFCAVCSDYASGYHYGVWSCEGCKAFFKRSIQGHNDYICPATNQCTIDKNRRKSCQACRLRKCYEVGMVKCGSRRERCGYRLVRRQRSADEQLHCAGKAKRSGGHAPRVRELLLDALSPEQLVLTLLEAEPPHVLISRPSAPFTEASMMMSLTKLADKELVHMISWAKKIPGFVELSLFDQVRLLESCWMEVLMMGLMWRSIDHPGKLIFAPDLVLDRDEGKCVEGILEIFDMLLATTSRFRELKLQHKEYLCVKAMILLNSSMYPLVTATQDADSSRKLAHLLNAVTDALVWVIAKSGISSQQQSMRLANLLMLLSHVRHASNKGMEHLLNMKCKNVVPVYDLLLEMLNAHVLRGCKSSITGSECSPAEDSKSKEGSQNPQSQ

[2] = Selectivity ratio of relative binding affinity for ERalpha (unknown origin) to relative binding affinity to ERbeta (unknown origin)
[3] = Selectivity index, ratio of Ki for ERalpha (unknown origin) to Ki for ERbeta (unknown origin)
[4] = target: T2, von Hippel-Lindau disease tumor suppressor/Estrogen receptor (Homo sapiens) (UniProt P03372+P40337); test: PROTAC activity at VHL/ERalpha in ER-positive human MCF7 cells assessed as induction of ERalpha degradation at 1 to 5 uM incubated for 12 hrs by Western blot analysis; format: cell-based; conditions: dose 1-5 µM
T2 sequence (P40337 whole entry, looked up, one chain of several): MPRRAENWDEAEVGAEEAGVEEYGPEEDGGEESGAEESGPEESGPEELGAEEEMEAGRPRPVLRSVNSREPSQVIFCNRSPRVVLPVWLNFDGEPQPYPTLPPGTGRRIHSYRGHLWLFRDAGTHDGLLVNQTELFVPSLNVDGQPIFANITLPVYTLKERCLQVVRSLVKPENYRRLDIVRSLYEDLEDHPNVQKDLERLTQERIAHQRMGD

[5] = target: T3, Estrogen receptor (Homo sapiens, UniProt P03372)
T3 sequence (P03372 whole entry): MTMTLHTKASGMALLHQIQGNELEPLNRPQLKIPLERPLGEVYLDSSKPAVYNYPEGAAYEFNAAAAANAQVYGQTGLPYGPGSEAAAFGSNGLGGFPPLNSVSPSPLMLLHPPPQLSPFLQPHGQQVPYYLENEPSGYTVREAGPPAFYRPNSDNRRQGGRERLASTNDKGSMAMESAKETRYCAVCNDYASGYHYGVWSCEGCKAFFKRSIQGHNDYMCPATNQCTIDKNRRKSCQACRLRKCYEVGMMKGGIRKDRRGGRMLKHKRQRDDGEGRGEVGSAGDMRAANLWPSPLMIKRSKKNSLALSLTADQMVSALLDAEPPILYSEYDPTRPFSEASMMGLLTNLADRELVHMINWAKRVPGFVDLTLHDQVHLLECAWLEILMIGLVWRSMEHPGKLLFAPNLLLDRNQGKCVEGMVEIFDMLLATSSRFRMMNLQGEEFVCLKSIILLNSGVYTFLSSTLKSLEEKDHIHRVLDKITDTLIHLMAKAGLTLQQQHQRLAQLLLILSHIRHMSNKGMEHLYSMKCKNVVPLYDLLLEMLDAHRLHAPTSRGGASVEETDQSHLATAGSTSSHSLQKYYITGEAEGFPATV

[6] = target: T1, Estrogen receptor beta
[7] = test system: MCF7; test: cells; conditions: Homo sapiens, MCF7, 72 h
[8] = cells; conditions: Homo sapiens, Tamoxifen-resistant LCC2 cell, 72 h
[9] = test system: T47D; test: cells; conditions: Homo sapiens, 72 h
[10] = test system: T47D; test: cells; conditions: Homo sapiens, 72 h; remark: listed apart in the source
[11] = test system: T47D; test: cells; conditions: Homo sapiens, 72 h; remark: listed apart in the source
[12] = test system: MDA-MB-231; test: cells; conditions: Homo sapiens, MDA-MB-231, 72 h
[13] = in vitro; conditions: human, MCF-10A cells
[14] = target: T4, Estrogen receptor (Homo sapiens) (UniProt P03372); test: Induction of ERalpha degradation in ER-positive human MCF7 cells at 10 uM incubated for 12 hrs by Western blot analysis; format: cell-based
T4 sequence (whole entry): T3 sequence (P03372 whole entry)

[15] = target: T1, Estrogen receptor beta; test: Induction of ERbeta degradation in human NCI-H1975 cells at 10 uM incubated for 12 hrs by Western blot analysis; format: cell-based
[16] = target: T2, von Hippel-Lindau disease tumor suppressor/Estrogen receptor (Homo sapiens); test: PROTAC activity at VHL/wild type ERalpha in ER-positive human MCF7 cells assessed as induction of ERalpha degradation at 1 uM incubated for 12 hrs by Western blot analysis; format: cell-based
[17] = target: T4, Estrogen receptor (Homo sapiens); test: Induction of ERalpha degradation in ER-positive human MCF7 cells at 5 uM incubated for 12 hrs by Western blot analysis; format: cell-based
[18] = test system: MCF7; test: Antitumor activity against human tamoxifen-sensitive MCF7 cells xenografted in BALB/c nude mouse assessed as inhibition of tumor growth at 5 micromol/kg, ip administered once every 2 days and measured every 2 days; format: functional, organism-based; conditions: dose 5.0 µmol/kg
[19] = test system: Mus musculus; test: In vivo protac activity at VHL/ERalpha in BALB/c nude mouse xenografted with human tamoxifen-sensitive MCF7 cells assessed as reduction in ERalpha protein levels in tumor at 5 micromol/kg, ip administered once every 2 days by Western blot analysis; format: functional, organism-based; conditions: dose 5.0 µmol/kg
[20] = test system: MCF7; test: Antitumor activity against human tamoxifen-sensitive MCF7 cells xenografted in BALB/c nude mouse assessed as increase in tumor necrosis area at 5 micromol/kg, ip administered once every 2 days by […] staining based analysis; format: functional, organism-based; conditions: dose 5.0 µmol/kg
[21] = test system: MCF7; test: Antitumor activity against human tamoxifen-sensitive MCF7 cells xenografted in BALB/c nude mouse assessed as reduction in cell proliferation at 5 micromol/kg, ip administered once every 2 days by ki67 staining based analysis; format: functional, organism-based; conditions: dose 5.0 µmol/kg
[22] = test system: T47D; test: Inhibition of nascent GREB1 RNA synthesis in human T47D cells incubated for 6 hrs by 4-thiouridine incorporation assay; format: functional, cell-based
[23] = test system: T47D; test: Inhibition of nascent IGFBP4 RNA synthesis in human T47D cells incubated for 6 hrs by 4-thiouridine incorporation assay; format: functional, cell-based
[24] = target: T4, Estrogen receptor (Homo sapiens); test: Inhibition of ERalpha binding to DNA in human T47D cells assessed as reduction in protein occupancy incubated for 6 hrs by ChIP-seq analysis; format: cell-based
[25] = test system: T47D; test: Inhibition of gene transcription in human T47D cells assessed as reduction in Pol II occupancy at GREB1 promoter region by ChIP-seq analysis; format: functional, cell-based
[26] = test system: T47D; test: Inhibition of gene transcription in human T47D cells assessed as reduction in Pol II occupancy at IGFBP4 promoter region by ChIP-seq analysis; format: functional, cell-based
[27] = test system: T47D; test: Inhibition of gene transcription in human T47D cells assessed as reduction in H3K27ac levels in GREB1 promoter region by ChIP-seq analysis; format: functional, cell-based
[28] = test system: T47D; test: Inhibition of gene transcription in human T47D cells assessed as reduction in H3K27ac levels in IGFBP4 promoter region by ChIP-seq analysis; format: functional, cell-based

SMILES | RBA [1] | Selectivity ratio [2] | Ratio Ki [3] | Ki [5] | Ki [6] | IC50 [7] | IC50 [8] | IC50 [9] | IC50 [10] | IC50 [11] | IC50 [12] | IC50 at 72 h [13] | other results
Cc1ncsc1-c1ccc([C@H](C)NC(=O)[C@@H]2C[C@H](O)CN2C(=O)[C@@H](NC(=O)CCCCCOc2ccc(N(CC(F)(F)F)S(=O)(=O)C3CC4OC3C(c3ccc(O)cc3)=C4c3ccc(O)cc3)cc2)C(C)(C)C)cc1 (stereo partly specified) | 0.05% | 1.6 | 6.2 | 2.54 µM | 15.7 µM | > 50 µM | > 50 µM | > 50 µM | > 50 µM | > 50 µM | > 100 µM | > 100 µM | Activity [4]: inactive
COc1ccc(N(CC(F)(F)F)S(=O)(=O)C2CC3OC2C(c2ccc(O)cc2)=C3c2ccc(O)cc2)cc1 (stereo unspecified) |  |  |  |  |  |  |  |  |  |  |  |  | Activity [14]: Active; Activity [15]: Active
COc1ccc(N(CC(F)(F)F)S(=O)(=O)C2CC3OC2C(c2ccc(OCCCCCC(=O)N[C@H](C(=O)N4C[C@H](O)C[C@H]4C(=O)N[C@@H](C)c4ccc(-c5scnc5C)cc4)C(C)(C)C)cc2)=C3c2ccc(O)cc2)cc1 (stereo partly specified) | 0.03% | 2.67 | 10.3 | 2.54 µM | 26.2 µM | > 10 µM | > 30 µM | > 30 µM | > 30 µM | > 30 µM | > 100 µM | > 100 µM | Activity [16]: inactive
CC(C)C[C@@H](C=O)NC(=O)[C@H](CC(C)C)NC(=O)[C@H](CC(C)C)NC(=O)OCc1ccccc1 (Cbz-Leu-Leu-Leu-aldehyde) |  |  |  |  |  |  |  |  |  |  |  |  | Activity [17]: inactive
C[C@]12CC[C@@H]3c4ccc(O)cc4C[C@@H](CCCCCCCCC[S+]([O-])CCCC(F)(F)C(F)(F)F)[C@H]3[C@@H]1CC[C@@H]2O (stereo partly specified) [FULVESTRANT] |  |  |  |  |  | 0.33 µM | 11.8 µM | 1.76 µM | 3.92 µM | 2.21 µM | > 100 µM |  | inhibition [18]: Active; Activity [19]: Active; Activity [20]: Active; Activity [21]: Active; inhibition [22]: Active; inhibition [23]: Active; inhibition [24]: Active; inhibition [25]: Active; inhibition [26]: Active; inhibition [27]: Active; inhibition [28]: Active
